According to patent publication US12336981B2, “Compounds and compositions for the inhibition of NAMPT” (Valo Health, Inc., priority 2010, dated 2025):
Like-named read-outs stand apart in the source and are kept apart here.

Experiments:
NAMPT = target: T1, NAMPT (Homo sapiens, UniProt P43490); experiment: Biochemical inhibition assay: NAMPT enzymatic reaction, NMN quantified by mass spectrometry; settings: read-out: Biochem IC50
T1 construct: His tag; host or cells: E. coli
In short: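 Inhibition of E. coli-expressed His-tagged human NAMPT, measured as NMN formation by mass spectrometry after a 30 min room-temperature reaction containing 1 μM NAM, 100 μM PRPP and 2.5 mM ATP.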

A2780 cells = experiment: In-vitro cell proliferation assay (SRB), A2780 cells; type: cell-based; settings: Homo sapiens, A2780, 72 h, A2780 cells, 72 hours, read-out: A2780 IC50
In short: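 Viable cells measured by SRB staining after 6% TCA fixation, absorbance 570 nm. Media-only background subtracted; % inhibition derived at two compound concentrations.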

T1 sequence (P43490 whole entry): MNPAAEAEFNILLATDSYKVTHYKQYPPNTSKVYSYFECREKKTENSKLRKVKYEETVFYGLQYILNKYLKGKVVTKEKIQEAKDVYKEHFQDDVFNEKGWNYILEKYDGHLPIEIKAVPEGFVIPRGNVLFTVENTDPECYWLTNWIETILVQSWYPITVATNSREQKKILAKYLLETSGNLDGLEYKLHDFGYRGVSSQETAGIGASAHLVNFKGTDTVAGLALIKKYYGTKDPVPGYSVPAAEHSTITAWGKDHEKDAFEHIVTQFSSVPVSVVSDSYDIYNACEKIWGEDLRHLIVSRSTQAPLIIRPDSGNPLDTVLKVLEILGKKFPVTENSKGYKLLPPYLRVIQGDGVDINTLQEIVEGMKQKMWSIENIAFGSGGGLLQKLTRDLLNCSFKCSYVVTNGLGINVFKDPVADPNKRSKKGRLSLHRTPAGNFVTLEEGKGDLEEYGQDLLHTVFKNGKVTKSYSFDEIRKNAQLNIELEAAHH

Compound | IC50 (NAMPT; NAMPT enzymatic assay) [nM] | IC50 (A2780 cells; SRB) [nM] | IC50 (NAMPT; NAMPT enzymatic reaction) [nM] | IC50 (A2780 cells; SRB assay) [nM]
O=C(NCc1ccc(S(=O)(=O)c2cncc(F)c2)cc1)c1cc2ccncc2s1 [N-{[4-(5-fluoropyridine-3-sulfonyl)phenyl]methyl}thieno[2,3-c]pyridine-2-carboxamide] | 9.7 | 6.4 | – | –
COc1ccc(C)c(NS(=O)(=O)c2ccc(CNC(=O)c3cc4cnccc4[nH]3)cc2)c1 [N-({4-[(5-methoxy-2-methylphenyl)sulfamoyl]phenyl}methyl)-1H-pyrrolo[3,2-c]pyridine-2-carboxamide] | – | – | 51 | 13000
COc1ccc(C(C)C)cc1S(=O)(=O)c1ccc(CNC(=O)c2cc3ccncc3s2)cc1 [N-[(4-{[2-methoxy-5-(propan-2-yl)benzene]sulfonyl}phenyl)methyl]thieno[2,3-c]pyridine-2-carboxamide] | – | – | 9 | 6.2
COc1ccc(C)cc1S(=O)(=O)c1ccc(CNC(=O)c2ccc3nccn3c2)cc1 [N-({4-[(2-methoxy-5-methylbenzene)sulfonyl]phenyl}methyl)imidazo[1,2-a]pyridine-6-carboxamide] | – | 11.7 | 43.1 | –
O=C(NCc1ccc(S(=O)(=O)c2cccc(-n3cccn3)c2)cc1)c1cc2cnccc2[nH]1 [N-[(4-{[3-(1H-pyrazol-1-yl)benzene]sulfonyl}phenyl)methyl]-1H-pyrrolo[3,2-c]pyridine-2-carboxamide] | 9.7 | 7.4 | – | –
COc1ccc(Cl)cc1S(=O)(=O)c1ccc(CNC(=O)c2cnc3nccn3c2)cc1 | – | 6.1 | 5.5 | –
CCCOc1cccc(S(=O)(=O)c2ccc(CNC(=O)c3ccc4nccn4c3)cc2)c1 | – | 6.3 | 4.2 | –
CC(C)NC(=O)c1cc(S(=O)(=O)c2ccc(CNC(=O)c3cnc4[nH]ncc4c3)cc2)ccc1F [N-{[4-({4-fluoro-3-[(propan-2-yl)carbamoyl]benzene}sulfonyl)phenyl]methyl}-1H-pyrazolo[3,4-b]pyridine-5-carboxamide] | 85.2 | 63.1 | – | –
COc1ccc(OC)c(S(=O)(=O)c2ccc(CNC(=O)c3cnc4[nH]ncc4c3)cc2)c1 [N-({4-[(2,5-dimethoxybenzene)sulfonyl]phenyl}methyl)-1H-pyrazolo[3,4-b]pyridine-5-carboxamide] | – | 24.8 | 39.8 | –
COc1cc(F)ccc1S(=O)(=O)c1ccc(CNC(=O)c2cc3ccncc3o2)cc1 | – | 16 | 12.7 | –
O=C(NCc1ccc(S(=O)(=O)c2cccc3c2oc2ccccc23)cc1)c1cnc2[nH]ncc2c1 | 21 | 7.52 | – | –
O=C(NCc1ccc(S(=O)(=O)c2cc(F)cc(N3CCOCC3)c2)cc1)c1cc2cnccc2[nH]1 | 4 | 0.8 | – | –
O=C(NCc1ccc(S(=O)(=O)c2ccc3c(c2)OCO3)cc1)c1ccc2nccn2c1 [N-{[4-(2H-1,3-benzodioxole-5-sulfonyl)phenyl]methyl}imidazo[1,2-a]pyridine-6-carboxamide] | 10.7 | 5.33 | – | –
O=C(NCc1ccc(S(=O)(=O)c2ccc(Cl)c(Cl)c2)cc1)c1cc2ccncc2o1 | – | 4.8 | 10.4 | –
O=C(NCc1ccc(S(=O)(=O)c2cccc(C(F)(F)F)n2)cc1)c1ccc2nccn2c1 [N-({4-[6-(trifluoromethyl)pyridine-2-sulfonyl]phenyl}methyl)imidazo[1,2-a]pyridine-6-carboxamide] | 8.7 | 1.5 | – | –
CCCOc1ccc(S(=O)(=O)c2ccc(CNC(=O)c3cc4ccncc4o3)cc2)c(C)c1 | – | 59.6 | 22.5 | –
Cc1ccc(S(=O)(=O)c2ccc(CNC(=O)c3cc4ccncc4s3)cc2)cn1 [N-{[4-(6-methylpyridine-3-sulfonyl)phenyl]methyl}thieno[2,3-c]pyridine-2-carboxamide] | 22 | 6.3 | – | –
O=C(NCc1ccc(S(=O)(=O)c2ccc(F)cc2C(F)(F)F)cc1)c1cc2ccncc2s1 | 6.4 | 14.3 | – | –
CCc1cccc(S(=O)(=O)c2ccc(CNC(=O)c3ccc4nccn4c3)cc2)c1 [N-({4-[(3-ethylbenzene)sulfonyl]phenyl}methyl)imidazo[1,2-a]pyridine-6-carboxamide] | – | 3.23 | 4.83 | –
O=C(NCc1ccc(S(=O)(=O)c2ccc(C(F)(F)F)c(Cl)c2)cc1)c1cnc2[nH]ncc2c1 [N-[(4-{[3-chloro-4-(trifluoromethyl)benzene]sulfonyl}phenyl)methyl]-1H-pyrazolo[3,4-b]pyridine-5-carboxamide] | 84.3 | 26.4 | – | –
Cc1cncc(S(=O)(=O)c2ccc(CNC(=O)c3cnc4nccn4c3)cc2)c1 [N-{[4-(5-methylpyridine-3-sulfonyl)phenyl]methyl}imidazo[1,2-a]pyrimidine-6-carboxamide] | 2.2 | 12.4 | – | –
O=C(NCc1ccc(S(=O)(=O)c2cccc(OCCN3CCOCC3)c2)cc1)c1cnc2nccn2c1 | 3.1 | 24.7 | – | –
O=C(NCc1ccc(S(=O)(=O)c2ccccc2)cc1)c1cc2nccnc2s1 [N-{[4-(benzenesulfonyl)phenyl]methyl}thieno[2,3-b]pyrazine-6-carboxamide] | – | – | 52 | > 30000

Compound | IC50 (NAMPT; NAMPT enzymatic assay) [nM] | IC50 (A2780 cells; SRB) [nM] | IC50 (NAMPT; NAMPT enzymatic reaction) [nM] | IC50 (A2780 cells; SRB assay) [nM]
Cc1ccc(F)cc1S(=O)(=O)c1ccc(CNC(=O)c2cc3ccncc3o2)cc1 | – | 24.9 | 14.3 | –
O=C(NCCc1ccc(S(=O)(=O)c2ccccc2)cc1)c1cc2cnccc2[nH]1 [N-{2-[4-(benzenesulfonyl)phenyl]ethyl}-1H-pyrrolo[3,2-c]pyridine-2-carboxamide] | – | – | 410 | 9100
COc1ccc(S(=O)(=O)c2ccc(CNC(=O)c3cnc4nccn4c3)cc2)cc1C | – | 5.5 | 2.2 | –
CC(C)COc1cccc(S(=O)(=O)c2ccc(CNC(=O)c3ccc4nccn4c3)cc2)c1 | 15.7 | 10.6 | – | –
COc1cc(OC)cc(S(=O)(=O)c2ccc(CNC(=O)c3cnc4[nH]ncc4c3)cc2)c1 | – | 2.2 | 2.6 | –
COc1ccc(C)cc1S(=O)(=O)c1ccc(CNC(=O)c2cnc3nccn3c2)cc1 | – | 7.2 | 3.9 | –
CCOc1ccc(S(=O)(=O)c2ccc(CNC(=O)c3cc4cnccc4[nH]3)cc2)c(C)c1 | – | 12.6 | 9.2 | –
O=C(NCc1ccc(S(=O)(=O)c2cccc(N3CCCCC3)c2)cc1)c1ccc2nccn2c1 | 11.4 | 3.4 | – | –
CC(C)(C)c1cccc(S(=O)(=O)c2ccc(CNC(=O)c3cc4ccncc4s3)cc2)c1 | – | 9.1 | 10.5 | –
O=C(NCc1ccc(S(=O)(=O)c2ccc3c(c2)OCO3)cc1)c1cc2ccncc2s1 [N-{[4-(2H-1,3-benzodioxole-5-sulfonyl)phenyl]methyl}thieno[2,3-c]pyridine-2-carboxamide] | – | – | 3 | 2.5
Cn1ncc2cc(S(=O)(=O)c3ccc(CNC(=O)c4ccc5nccn5c4)cc3)ccc21 [N-{[4-(1-methyl-1H-indazole-5-sulfonyl)phenyl]methyl}imidazo[1,2-a]pyridine-6-carboxamide] | 4 | 1.6 | – | –
O=C(NCc1ccc(S(=O)(=O)c2cnc(N3CCCC3)s2)cc1)c1cnc2[nH]ncc2c1 [N-({4-[2-(pyrrolidin-1-yl)-1,3-thiazole-5-sulfonyl]phenyl}methyl)-1H-pyrazolo[3,4-b]pyridine-5-carboxamide] | 2.8 | 0.9 | – | –
O=C(NCc1ccc(S(=O)(=O)c2cccc(F)c2Cl)cc1)c1cnc2[nH]ncc2c1 | – | 100 to 1000 | 73.6 | –
O=C(NCc1ccc(S(=O)(=O)c2cccc(C(=O)NC3CCCC3)c2)cc1)c1cnc2nccn2c1 | 4.7 | 48.3 | – | –
O=C(NCc1ccc(S(=O)(=O)c2cccc3c2sc2ccccc23)cc1)c1cc2ccncc2o1 | 8.7 | 12 | – | –
Cc1ccncc1S(=O)(=O)c1ccc(CNC(=O)c2cnc3[nH]ncc3c2)cc1 [N-{[4-(4-methylpyridine-3-sulfonyl)phenyl]methyl}-1H-pyrazolo[3,4-b]pyridine-5-carboxamide] | 100 to 1000 | 271 | – | –
COc1ccc(F)cc1S(=O)(=O)c1ccc(CNC(=O)c2ccc3nccn3c2)cc1 [N-({4-[(5-fluoro-2-methoxybenzene)sulfonyl]phenyl}methyl)imidazo[1,2-a]pyridine-6-carboxamide] | – | 6.65 | 22 | –
COc1ccc(F)c(S(=O)(=O)c2ccc(CNC(=O)c3cnc4[nH]ncc4c3)cc2)c1 [N-({4-[(2-fluoro-5-methoxybenzene)sulfonyl]phenyl}methyl)-1H-pyrazolo[3,4-b]pyridine-5-carboxamide] | – | 100 to 1000 | 139 | –
CCCCOc1ccc(S(=O)(=O)c2ccc(CNC(=O)c3cc4ccncc4s3)cc2)c(C)c1 | – | 100 to 1000 | 3.3 | –
O=C(NCc1ccc(S(=O)(=O)c2ccc(F)cc2F)cc1)c1ccc2nccn2c1 [N-({4-[(2,4-difluorobenzene)sulfonyl]phenyl}methyl)imidazo[1,2-a]pyridine-6-carboxamide] | – | 28.1 | 28.3 | –
CCOc1ccc(Cl)cc1S(=O)(=O)c1ccc(CNC(=O)c2cnc3nccn3c2)cc1 | – | 3.3 | 1.9 | –
O=C(NCc1ccc(S(=O)(=O)c2cccc3cccnc23)cc1)c1cc2ccncc2o1 [N-{[4-(quinoline-8-sulfonyl)phenyl]methyl}furo[2,3-c]pyridine-2-carboxamide] | 7.6 | 6 | – | –
COc1cc(-n2cccn2)ccc1S(=O)(=O)c1ccc(CNC(=O)c2ccc3nccn3c2)cc1 [N-[(4-{[2-methoxy-4-(1H-pyrazol-1-yl)benzene]sulfonyl}phenyl)methyl]imidazo[1,2-a]pyridine-6-carboxamide] | 21 | 3.59 | – | –
